The values below come from PubChem BioAssay AID330 (DTP/NCI, 2004).

Values joined by “and” are separate entries in the source; they are usually repeats but may differ in a detail not shown here. Identical values can stand only once. Inconclusive results and toxic doses are left out.

This assay has as its system P388 leukemia ip, CD2F1 mice, survival T/C. In words: NCI In Vivo Anticancer Drug Screen. Data for tumor model P388 Leukemia (intraperitoneal) in CD2F1 (CDF1) mice. The note with it: endpoint: median survival time, higher = longer survival. In outline:
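Mice carrying the transplanted tumor received test compound or vehicle. Survival was recorded in each group, and the value is the treated-group measurement divided by that of the vehicle-treated control group.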

[1] abbreviates: dose: 50.0 mg/kg/injection, schedule: Q01DX005 (ip), vehicle: Klucel (hydroxypropylcellulose) (HPC).
[2] abbreviates: dose: 100.0 mg/kg/injection, schedule: Q01DX005 (ip), vehicle: Klucel (hydroxypropylcellulose) (HPC).
Setting [3] is: dose: 25.0 mg/kg/injection, schedule: Q01DX009 (ip), vehicle: saline.
Where [4] appears, read: dose: 50.0 mg/kg/injection, schedule: Q01DX005 (ip), vehicle: saline with Tween-80.
[5] abbreviates: dose: 100.0 mg/kg/injection, schedule: Q01DX005 (ip), vehicle: saline with Tween-80.
Setting [6] is: dose: 200.0 mg/kg/injection, schedule: Q01DX005 (ip), vehicle: saline with Tween-80.
The mark [7] stands for this setting: dose: 50.0 mg/kg/injection, schedule: Q04DX003 (ip), vehicle: saline with Tween-80.
The mark [8] stands for this setting: dose: 100.0 mg/kg/injection, schedule: Q04DX003 (ip), vehicle: saline with Tween-80.
The mark [9] stands for this setting: dose: 200.0 mg/kg/injection, schedule: Q04DX003 (ip), vehicle: saline with Tween-80.
The mark [10] stands for this setting: dose: 400.0 mg/kg/injection, schedule: Q04DX003 (ip), vehicle: saline with Tween-80.
Where [11] appears, read: dose: 12.5 mg/kg/injection, schedule: Q01DX009 (ip), vehicle: saline with Tween-80.
Where [12] appears, read: dose: 100.0 mg/kg/injection, schedule: Q01DX009 (ip), vehicle: saline with Tween-80.
The mark [13] stands for this setting: dose: 200.0 mg/kg/injection, schedule: Q04DX003 (ip), vehicle: saline.
Setting [14] is: dose: 400.0 mg/kg/injection, schedule: Q04DX003 (ip), vehicle: saline.

Take `COC(=O)C1C2c3ccccc3C(C1C(=O)OC)[n+]1ccccc12` (stereo unspecified): the T/C is 94 % of control (dose: 25.0 mg/kg/injection, schedule: Q01DX005 (ip), vehicle: Klucel (hydroxypropylcellulose) (HPC)); 94 % of control under setting [1]; 100 % of control under setting [2].

Consider `Nc1ncc2c(n1)Oc1cc3nc4c(=O)nc(N)nc-4oc3cc1N2`, for which the T/C by setting is: under setting [1], 91 % of control; under setting [2], 93 % of control.

Take `C=C(Cl)CNc1ccccc1C(=O)O`: the T/C (dose: 25.0 mg/kg/injection, schedule: Q04DX003 (ip), vehicle: Klucel (hydroxypropylcellulose) (HPC)) is 109 % of control and 97 % of control; the T/C (dose: 50.0 mg/kg/injection, schedule: Q04DX003 (ip), vehicle: Klucel (hydroxypropylcellulose) (HPC)) is 109 % of control and 110 % of control; the T/C (dose: 100.0 mg/kg/injection, schedule: Q04DX003 (ip), vehicle: Klucel (hydroxypropylcellulose) (HPC)) is 103 % of control and 95 % of control; the T/C (dose: 200.0 mg/kg/injection, schedule: Q04DX003 (ip), vehicle: Klucel (hydroxypropylcellulose) (HPC)) was 94 % of control.

With `CC(C)C(O)(C(=O)OCN1C(=O)C2C3C=CC(C2C1=O)C1C2C(=O)N(COC(=O)C(O)(C(C)C)C(C)O)C(=O)C2C31)C(C)O` (stereo unspecified), the T/C runs as follows: (dose: 12.5 mg/kg/injection, schedule: Q01DX009 (ip), vehicle: saline) 110 % of control; under setting [3], 103 % of control; (dose: 50.0 mg/kg/injection, schedule: Q01DX009 (ip), vehicle: saline) 109 % of control; (dose: 100.0 mg/kg/injection, schedule: Q01DX009 (ip), vehicle: saline) 115 % of control.

Regarding `CC(NC(=O)C1CCCN1C(=O)OCc1ccccc1)C(=O)O` (stereo unspecified), the T/C reads like this: under setting [4], 106 % of control; under setting [5], 100 % of control; under setting [6], 100 % of control.

Take `[Cu+2].[NH-]C(CO)C(=O)O.[NH-]C(Cc1cnc[nH]1)C(=O)O` (stereo unspecified): the T/C runs as follows: (dose: 6.25 mg/kg/injection, schedule: Q01DX009 (ip), vehicle: saline) 97 % of control; under setting [3], 114 % of control.

Take `CC(C)(C)c1ccc(CN2CCN(C(c3ccccc3)c3ccc(Cl)cc3)CC2)cc1` (stereo unspecified): the T/C was 89 % of control (dose: 2.0 mg/kg/injection, schedule: Q01DX009 (ip), vehicle: saline with Tween-80); 95 % of control (dose: 4.0 mg/kg/injection, schedule: Q01DX009 (ip), vehicle: saline with Tween-80); 89 % of control (dose: 8.0 mg/kg/injection, schedule: Q01DX009 (ip), vehicle: saline with Tween-80); 94 % of control (dose: 16.0 mg/kg/injection, schedule: Q01DX009 (ip), vehicle: saline with Tween-80); 94 % of control (dose: 32.0 mg/kg/injection, schedule: Q01DX009 (ip), vehicle: saline with Tween-80); 94 % of control (dose: 64.0 mg/kg/injection, schedule: Q01DX009 (ip), vehicle: saline with Tween-80).

With `CSC1=C(C#N)C(=O)N=S(C)(C)=N1`, the T/C runs as follows: under setting [4], 108 % of control; under setting [5], 110 % of control; under setting [6], 100 % of control.

Take `NC(=O)c1ccc(=O)n(C2OC(CO)C(O)C2O)c1` (stereo unspecified): the T/C is, setting by setting: under setting [7], 102 % of control; under setting [8], 102 % of control; under setting [9], 100 % of control; under setting [10], 102 % of control.

With `NC(=O)CC1(O)c2ccccc2C(=O)c2ccccc21`, the T/C runs as follows: (dose: 3.13 mg/kg/injection, schedule: Q01DX009 (ip), vehicle: clinical formulation) 97 % of control; (dose: 6.25 mg/kg/injection, schedule: Q01DX009 (ip), vehicle: clinical formulation) 104 % of control; (dose: 12.5 mg/kg/injection, schedule: Q01DX009 (ip), vehicle: clinical formulation) 97 % of control; (dose: 25.0 mg/kg/injection, schedule: Q01DX009 (ip), vehicle: clinical formulation) 94 % of control; (dose: 50.0 mg/kg/injection, schedule: Q01DX009 (ip), vehicle: clinical formulation) 97 % of control; (dose: 100.0 mg/kg/injection, schedule: Q01DX009 (ip), vehicle: clinical formulation) 100 % of control.

Turning to `Cc1cc(NC(=O)NCc2ccc(N3C(N)=NC(N)=NC3(C)C)cc2)ccc1S(=O)(=O)F`, the T/C by setting is: under setting [11], 119 % of control; (dose: 25.0 mg/kg/injection, schedule: Q04DX003 (ip), vehicle: saline with Tween-80) 105 % of control; (dose: 25.0 mg/kg/injection, schedule: Q04DX003 (ip), vehicle: saline) 109 % of control; under setting [7], 119 % of control; under setting [12], 176 % of control; under setting [8], 153 % of control. In addition, the T/C is, setting by setting: under setting [9], 164 % of control; under setting [13], 154 % of control; under setting [14], 90 % of control.

Turning to `O=[N+]([O-])c1cccn2nnnc12`, the T/C is 102 % of control (dose: 3.12 mg/kg/injection, schedule: Q01DX009 (ip), vehicle: saline with Tween-80); 87 % of control (dose: 6.25 mg/kg/injection, schedule: Q01DX009 (ip), vehicle: saline with Tween-80); 93 % of control under setting [11]; 95 % of control (dose: 25.0 mg/kg/injection, schedule: Q01DX009 (ip), vehicle: saline with Tween-80); 117 % of control and 96 % of control (dose: 50.0 mg/kg/injection, schedule: Q01DX009 (ip), vehicle: saline with Tween-80); 119 % of control under setting [12].

For `Oc1ccc2ccccc2c1N=Nc1ccc(F)cc1`, the T/C reads like this: under setting [8], 100 % of control; under setting [9], 100 % of control; under setting [10], 104 % of control.

For the molecule `COc1ccccc1C1NC(c2ccccc2OC)C2CCCC1C2O` (stereo unspecified), the T/C is, setting by setting: (dose: 100.0 mg/kg/injection, schedule: Q04DX003 (ip), vehicle: saline) 98 % of control; under setting [13], 97 % of control; under setting [14], 95 % of control.

`CS(=O)c1c(C(=O)O)cc(C(C)(C)C)cc1C(=O)O` (stereo unspecified): the T/C reads like this: (dose: 100.0 mg/kg/injection, schedule: Q04DX002 (ip), vehicle: Klucel (hydroxypropylcellulose) (HPC)) 105 % of control; (dose: 200.0 mg/kg/injection, schedule: Q04DX002 (ip), vehicle: Klucel (hydroxypropylcellulose) (HPC)) 107 % of control; (dose: 400.0 mg/kg/injection, schedule: Q04DX002 (ip), vehicle: Klucel (hydroxypropylcellulose) (HPC)) 96 % of control.

Turning to `C[N+](C)(C)CCOC(=O)CCC(=O)OCC[N+](C)(C)C`, the T/C (dose: 312.0 micrograms/kg/injection, schedule: Q01DX009 (ip), vehicle: saline) was 104 % of control; the T/C (dose: 625.0 micrograms/kg/injection, schedule: Q01DX009 (ip), vehicle: saline) is 90 % of control; the T/C (dose: 1250.0 micrograms/kg/injection, schedule: Q01DX009 (ip), vehicle: saline) was 109 % of control.

For `CC(=O)O[C@H]1CC[C@H]2[C@@H]3CCC4=CC(=O)CC[C@]4(C)[C@H]3[C@H](OC(C)=O)C[C@]12C`, the T/C is 95 % of control under setting [12]; 100 % of control (dose: 200.0 mg/kg/injection, schedule: Q01DX009 (ip), vehicle: saline with Tween-80); 90 % of control (dose: 400.0 mg/kg/injection, schedule: Q01DX009 (ip), vehicle: saline with Tween-80).

On to `OC(Cc1ccccc1)c1ccccc1` (stereo unspecified), for which the T/C (dose: 31.25 mg/kg/injection, schedule: Q01DX009 (ip), vehicle: saline + Tween-80 + alcohol) is 107 % of control; the T/C (dose: 62.5 mg/kg/injection, schedule: Q01DX009 (ip), vehicle: saline + Tween-80 + alcohol) was 100 % of control; the T/C (dose: 100.0 mg/kg/injection, schedule: Q01DX009 (ip), vehicle: suspension in saline) is 104 % of control; the T/C (dose: 125.0 mg/kg/injection, schedule: Q01DX009 (ip), vehicle: saline + Tween-80 + alcohol) was 98 % of control; the T/C (dose: 200.0 mg/kg/injection, schedule: Q01DX009 (ip), vehicle: suspension in saline) is 98 % of control; the T/C (dose: 250.0 mg/kg/injection, schedule: Q01DX009 (ip), vehicle: saline + Tween-80 + alcohol) is 102 % of control. The T/C (dose: 400.0 mg/kg/injection, schedule: Q01DX009 (ip), vehicle: suspension in saline) was 98 % of control.

Regarding `O=C(O)CC(=O)O.[Cu+2].[NH-]C1CCCC2CCC[N-]C12` (stereo unspecified), the T/C was 93 % of control (dose: 5.0 mg/kg/injection, schedule: Q04DX002 (ip), vehicle: saline) and 108 % of control (dose: 10.0 mg/kg/injection, schedule: Q04DX002 (ip), vehicle: saline).
